Structures can show the parent of a compound that is named as a salt.
System: CDDP-resistant human lung cancer MOR/CPR cells
Experiment: In vitro cell growth inhibitory effect (WST method) on CDDP-resistant human lung cancer MOR/CPR cells
Format: cell-based
Details: gemcitabine hydrochloride alone, estimated
Procedure: The GI50 value in the case of gemcitabine hydrochloride alone was estimated to be about 10 μg/mL.
The cisplatin coordination compound obtained in Example 1 was prepared as a mannitol solution having a final concentration of 5% so as to contain 2.5 mg/mL in terms of CDDP. […] Furthermore, the concentrations or dosages of the cis-platin coordination compound are all indicated as the concentrations or dosages in terms of CDDP.

GI50: ~10 µg/mL
Structure (SMILES): Nc1ccn([C@@H]2O[C@H](CO)[C@@H](O)C2(F)F)c(=O)n1 [gemcitabine hydrochloride, Gemcitabine hydrochloride]

From patent publication USRE45471E1, “Pharmaceutical composition or combination drug” (Nanocarrier Co., Ltd., priority 2008, dated 2015)
